Measured values taken from the NIST ThermoML archive (doi:10.1016/j.tca.2014.05.028).

Assay: xn = mol fraction of the nth substance listed
Details: 101 kPa, Liquid; for viscosity: Falling or rolling sphere viscometry; for mass density: Vibrating tube method

CCCCC[N+]1(C)CCCC1.[Br-] [1-methyl-1-pentylpyrrolidinium bromide] + O
Details	mass density [kg/m3]	viscosity [mPa·s]
298.15 K, x1 = 0.0313	1054.87	1.987
298.15 K, x1 = 0.0592	1089.64	3.402
298.15 K, x1 = 0.0944	1119.19	6.013
298.15 K, x1 = 0.1301	1139.59	10.08
298.15 K, x1 = 0.1566	1150.73	14.2
298.15 K, x1 = 0.1964	1163.63	22.59
298.15 K, x1 = 0.2468	1175.13	38.27
298.15 K, x1 = 0.3028	1184.58	66.43
298.15 K, x1 = 0.3503	1190.28	102.55
298.15 K, x1 = 0.4097	1195.59	175.43
298.15 K, x1 = 0.445	1198.37	241.18
298.15 K, x1 = 1	1188.96	–
303.15 K, x1 = 0.0313	1052.43	1.728
303.15 K, x1 = 0.0592	1086.59	2.903
303.15 K, x1 = 0.0944	1115.78	5.036
303.15 K, x1 = 0.1301	1136.1	8.404
303.15 K, x1 = 0.1566	1147.25	11.61
303.15 K, x1 = 0.1964	1160.15	18.05
303.15 K, x1 = 0.2468	1171.69	29.76
303.15 K, x1 = 0.3028	1181.21	50.36
303.15 K, x1 = 0.3503	1186.96	76.83
303.15 K, x1 = 0.4097	1192.35	128.64
303.15 K, x1 = 0.445	1195.15	173.72
303.15 K, x1 = 1	1185.14	–
308.15 K, x1 = 0.0313	1049.86	1.469
308.15 K, x1 = 0.0592	1083.44	2.433
308.15 K, x1 = 0.0944	1112.34	4.142
308.15 K, x1 = 0.1301	1132.57	6.871
308.15 K, x1 = 0.1566	1143.72	9.343
308.15 K, x1 = 0.1964	1156.64	14.22
308.15 K, x1 = 0.2468	1168.24	22.83
308.15 K, x1 = 0.3028	1177.83	37.83
308.15 K, x1 = 0.3503	1183.64	56.94
308.15 K, x1 = 0.4097	1189.09	93.53
308.15 K, x1 = 0.445	1191.92	124.68
308.15 K, x1 = 1	1181.35	–
313.15 K, x1 = 0.0313	1047.17	1.288
313.15 K, x1 = 0.0592	1080.23	2.104
313.15 K, x1 = 0.0944	1108.85	3.523
313.15 K, x1 = 0.1301	1129.01	5.794
313.15 K, x1 = 0.1566	1140.17	7.793
313.15 K, x1 = 0.1964	1153.12	11.62
313.15 K, x1 = 0.2468	1164.79	18.25
313.15 K, x1 = 0.3028	1174.44	29.54
313.15 K, x1 = 0.3503	1180.31	43.93
313.15 K, x1 = 0.4097	1185.82	70.78
313.15 K, x1 = 0.445	1188.67	94.43
313.15 K, x1 = 1	1177.58	–
318.15 K, x1 = 0.0313	1044.36	1.152
318.15 K, x1 = 0.0592	1076.94	1.849
318.15 K, x1 = 0.0944	1105.32	3.055
318.15 K, x1 = 0.1301	1125.43	4.98
318.15 K, x1 = 0.1566	1136.58	6.632
318.15 K, x1 = 0.1964	1149.57	9.734
318.15 K, x1 = 0.2468	1161.33	14.99
318.15 K, x1 = 0.3028	1171.04	23.75
318.15 K, x1 = 0.3503	1176.97	35.02
318.15 K, x1 = 0.4097	1182.56	55.19
318.15 K, x1 = 0.445	1185.43	73.04
318.15 K, x1 = 1	1173.84	–
323.15 K, x1 = 0.0313	1041.42	1.018
323.15 K, x1 = 0.0592	1073.59	1.61
323.15 K, x1 = 0.0944	1101.75	2.62
323.15 K, x1 = 0.1301	1121.81	4.239
323.15 K, x1 = 0.1566	1132.97	5.594
323.15 K, x1 = 0.1964	1146.01	8.098
323.15 K, x1 = 0.2468	1157.86	12.24
323.15 K, x1 = 0.3028	1167.63	19.02
323.15 K, x1 = 0.3503	1173.62	27.61
323.15 K, x1 = 0.4097	1179.3	43.02
323.15 K, x1 = 0.445	1182.19	56.06
323.15 K, x1 = 1	1170.12	–
328.15 K, x1 = 0.0313	1038.21	0.901
328.15 K, x1 = 0.0592	1070.18	1.406
328.15 K, x1 = 0.0944	1098.14	2.253
328.15 K, x1 = 0.1301	1118.16	3.594
328.15 K, x1 = 0.1566	1129.34	4.737
328.15 K, x1 = 0.1964	1142.42	6.779
328.15 K, x1 = 0.2468	1154.37	10.1
328.15 K, x1 = 0.3028	1164.2	15.38
328.15 K, x1 = 0.3503	1170.27	22.07
328.15 K, x1 = 0.4097	1176.04	33.82
328.15 K, x1 = 0.445	1178.95	43.84
328.15 K, x1 = 1	1166.42	–
333.15 K, x1 = 0.0313	1034.52	0.806
333.15 K, x1 = 0.0592	1066.7	1.238
333.15 K, x1 = 0.0944	1094.49	1.961
333.15 K, x1 = 0.1301	1114.49	3.084
333.15 K, x1 = 0.1566	1125.68	4.048
333.15 K, x1 = 0.1964	1138.81	5.734
333.15 K, x1 = 0.2468	1150.85	8.449
333.15 K, x1 = 0.3028	1160.77	12.68
333.15 K, x1 = 0.3503	1166.91	18.16
333.15 K, x1 = 0.4097	1172.78	27.16
333.15 K, x1 = 0.445	1175.7	35.05
333.15 K, x1 = 1	1162.75	–
338.15 K, x1 = 0.0313	1031.9	0.735
338.15 K, x1 = 0.0592	1063.16	1.117
338.15 K, x1 = 0.0944	1090.8	1.75
338.15 K, x1 = 0.1301	1110.78	2.707
338.15 K, x1 = 0.1566	1121.99	3.551
338.15 K, x1 = 0.1964	1135.18	4.983
338.15 K, x1 = 0.2468	1147.32	7.259
338.15 K, x1 = 0.3028	1157.32	10.76
338.15 K, x1 = 0.3503	1163.54	15.24
338.15 K, x1 = 0.4097	1169.46	22.53
338.15 K, x1 = 0.445	1172.45	28.48
338.15 K, x1 = 1	1159.1	–
343.15 K, x1 = 0.0313	1026.38	0.661
343.15 K, x1 = 0.0592	1059.56	0.991
343.15 K, x1 = 0.0944	1087.07	1.532
343.15 K, x1 = 0.1301	1107.04	2.328
343.15 K, x1 = 0.1566	1118.28	3.039
343.15 K, x1 = 0.1964	1131.53	4.253
343.15 K, x1 = 0.2468	1143.76	6.138
343.15 K, x1 = 0.3028	1153.87	9.006
343.15 K, x1 = 0.3503	1160.16	12.52
343.15 K, x1 = 0.4097	1166.21	18.43
343.15 K, x1 = 0.445	1169.19	22.9
343.15 K, x1 = 1	1155.48	–
